Laboratory results taken from patent US20230374038A1, “MODULATORS OF CYSTIC FIBROSIS TRANSMEMBRANE CONDUCTANCE REGULATOR” (VERTEX PHARMACEUTICALS INCORPORATED, priority 2020, published 2023).

Biological target: CFTR (Homo sapiens, UniProt P13569)
Experiment: Membrane Potential Dye, Enteroid Assay B
Type: cell-based
Conditions: for EC50: read-out: Ent. B EC50
Method: Base medium (ADF+++) consisted of Advanced DMEM/Ham's F12, 2 mM Glutamax, 10 mM HEPES, 1 µg/mL penicillin/streptomycin.
Intestinal enteroid maintenance medium (IEMM) consisted of ADF+++, 1× B27 supplement, 1× N2 supplement, 1.25 mM N-acetyl cysteine, 10 mM Nicotinamide, 50 ng/mL hEGF, 10 nM Gastrin, 1 pg/mL hR-spondin-1, 100 ng/mL hNoggin, TGF-b type 1 inhibitor A-83-01, 100 μg/mL Primocin, […] P38 MAPK inhibitor SB202190.
Bath 1 Buffer consisted of 1 mM MgCl2, 160 mM NaCl, 4.5 mM KCl, 10 mM HEPES, 10 mM Glucose, 2 mM CaCl2).
Chloride Free Buffer consisted of 1 mM Magnesium Gluconate, 2 mM Calcium Gluconate, 4.5 mM Potassium Gluconate, 160 mM Sodium Gluconate, 10 mM HEPES, 10 mM Glucose.
Bath1 Dye Solution consisted of Bath 1 Buffer, 0.04% Pluronic F127, […] Methyl Oxonol, 30 μM CaCCinh-A01, 30 μM Chicago Sky Blue.
Chloride Free Dye Solution consisted of Chloride Free Buffer, 0.04% Pluronic F127, 20 μM Methyl Oxonol, 30 μM CaCCinh-A01, 30 μM Chicago Sky Blue.
Chloride Free Dye Stimulation Solution consisted of Chloride Free Dye Solution, 10 μM forskolin, 100 μM IBMX, and 300 nM Compound III.
Human intestinal epithelial enteroid cells were obtained from the Hubrecht Institute for Developmental Biology and Stem Cell Research, Utrecht, The Netherlands and expanded in T-Flasks as previously described (Dekkers J F, Wiegerinck C L, de Jonge H R, Bronsveld I, Janssens H M, de Winter-de Groot K M, Brandsma A M, de Jong N W M, Bijvelds M J C, Scholte B J, Nieuwenhuis E E S, van den Brink S, Clevers H, van der Ent C K, Middendorp S and M Beekman J M. A functional CFTR assay using primary cystic fibrosis intestinal organoids. Nat Med. 2013 July; 19(7):939-45.).
Cells were recovered in cell recovery solution, collected by centrifugation at 650 rpm for 5 min at 4° C., resuspended in TryPLE and incubated for 5 min at 37° C. Cells were then collected by centrifugation at 650 rpm for 5 min at 4° C. and resuspended in IEMM containing 10 μM ROCK inhibitor (RI). The cell suspension was passed through a 40 μm cell strainer and resuspended at 1×10^6 cells/mL in IEMM containing 10 μM RI. Cells were seeded at 5000 cells/well into multi-well plates and incubated for overnight at 37° C., 95% humidity and 5% CO2 prior to assay.
Enteroid cells were incubated with test compound in IEMM for 18-24 hours at 37° C., 95% humidity and 5% CO2. […] Briefly, cells were washed 5 times in Bath 1 Buffer. Bath 1 Dye Solution was added and the cells were incubated for 25 min at room temperature. Following dye incubation, cells were washed 3 times in Chloride Free Dye Solution. Chloride transport was initiated by addition of Chloride Free Dye Stimulation Solution and the fluorescence signal was read for 15 min. […] Chloride transport was then expressed as a percentage of the chloride transport following treatment with 1 μM (14S)-8-[3-(2-{Dispiro[2.0.2.1]heptan-7-yl}ethoxy)-1H-pyrazol-1-yl]-12,12-dimethyl-2λ^6-thia-3,9,11,18,23-pentaazatetracyclo[17.3.1.111,14.05,10]tetracosa-1(22),5,7,9,19(23),20-hexaene-2,2,4-trione, 3 μM (R)-1-(2,2-difluorobenzo[d][1,3]dioxol-5-yl)-N-(1-(2,3-dihydroxypropyl)-6-fluoro-2-(1-hydroxy-2-methylpropan-2-yl)-1H-indol-5-yl)cyclopropanecarboxamide and 300 nM acute N-[2,4-bis(1,1-dimethylethyl)-5-hydroxyphenyl]-1,4-dihydro-4-oxoquinoline-3-carboxamide triple combination control (% Activity).

CFTR, sequence (P13569 with tags, fused parts or gaps DEL508-508): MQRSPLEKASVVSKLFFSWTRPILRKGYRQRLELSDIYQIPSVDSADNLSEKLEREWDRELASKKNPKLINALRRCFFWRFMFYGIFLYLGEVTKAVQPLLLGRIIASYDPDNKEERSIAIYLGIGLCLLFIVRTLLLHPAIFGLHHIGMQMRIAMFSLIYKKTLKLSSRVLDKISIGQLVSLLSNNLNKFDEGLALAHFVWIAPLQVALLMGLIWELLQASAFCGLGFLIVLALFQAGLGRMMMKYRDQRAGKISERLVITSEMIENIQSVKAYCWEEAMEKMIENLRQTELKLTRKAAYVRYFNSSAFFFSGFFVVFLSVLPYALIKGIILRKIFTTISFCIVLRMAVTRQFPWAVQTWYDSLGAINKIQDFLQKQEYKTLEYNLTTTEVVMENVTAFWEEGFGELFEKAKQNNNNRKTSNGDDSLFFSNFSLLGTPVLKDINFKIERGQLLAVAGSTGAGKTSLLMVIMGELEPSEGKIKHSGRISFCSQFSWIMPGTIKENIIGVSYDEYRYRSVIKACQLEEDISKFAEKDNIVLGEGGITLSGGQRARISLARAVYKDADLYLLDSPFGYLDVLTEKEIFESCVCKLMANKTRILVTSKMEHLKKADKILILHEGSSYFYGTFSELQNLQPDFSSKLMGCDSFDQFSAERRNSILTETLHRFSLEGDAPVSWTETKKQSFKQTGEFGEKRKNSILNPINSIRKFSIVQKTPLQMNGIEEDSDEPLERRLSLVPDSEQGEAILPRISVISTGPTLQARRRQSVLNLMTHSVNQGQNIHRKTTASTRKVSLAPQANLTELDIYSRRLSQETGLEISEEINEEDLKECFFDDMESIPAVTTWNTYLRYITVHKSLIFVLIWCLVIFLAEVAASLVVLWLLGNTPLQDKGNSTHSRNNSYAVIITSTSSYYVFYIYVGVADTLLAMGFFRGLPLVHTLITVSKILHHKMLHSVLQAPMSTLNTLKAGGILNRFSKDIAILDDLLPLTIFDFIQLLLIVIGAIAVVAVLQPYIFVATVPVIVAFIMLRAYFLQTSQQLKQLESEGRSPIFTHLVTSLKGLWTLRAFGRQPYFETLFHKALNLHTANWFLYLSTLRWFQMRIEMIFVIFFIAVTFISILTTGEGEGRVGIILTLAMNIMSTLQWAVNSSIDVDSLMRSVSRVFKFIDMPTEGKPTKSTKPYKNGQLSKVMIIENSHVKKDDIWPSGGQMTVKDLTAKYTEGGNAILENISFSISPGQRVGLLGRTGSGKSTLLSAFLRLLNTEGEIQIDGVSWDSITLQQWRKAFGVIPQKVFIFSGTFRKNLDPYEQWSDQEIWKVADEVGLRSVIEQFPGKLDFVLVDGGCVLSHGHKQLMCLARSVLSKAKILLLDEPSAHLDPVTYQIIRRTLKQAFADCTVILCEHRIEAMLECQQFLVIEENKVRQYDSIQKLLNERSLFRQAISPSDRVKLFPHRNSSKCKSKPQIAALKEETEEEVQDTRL

| SMILES | Ent. B Max Activity | EC50 [nM] |
| --- | --- | --- |
| Cc1cccc(C)c1-c1nc2nc(c1C)OC[C@@H](CC1(C(F)(F)F)CC1)N(C1CC3(CC(NC(=O)OC(C)C)C3)C1)C(=O)c1cccc(c1)S(=O)(=O)N2 (stereo in doubt) [Compound 87] | +++ (+++ is >60%) | < 1000 |
| CCc1c2nc(nc1-c1c(C)cccc1C)NS(=O)(=O)c1cccc(c1)C(=O)N[C@@H]1CN(C3CC4(CCCCC4)C3)C[C@H]1O2 [Compound 115] | +++ (+++ is >60%) | < 1000 |
| Cc1cccc(C)c1-c1nc2nc(c1C)OC(c1ccc(CC3(C(F)(F)F)CC3)cn1)CN(C)C(=O)c1cccc(c1)S(=O)(=O)N2 (centres unmarked) [Compound 203] | +++ (+++ is >60%) | < 1000 |
| CCc1c2nc(nc1-c1c(C)cccc1C)NS(=O)(=O)c1cccc(c1)C(=O)N(C1CC3(CC3)C1)[C@H](CC(C)(C)C)CO2 [Compound 188] | +++ (+++ is >60%) | < 1000 |
| COc1ccccc1-c1c2nc(nc1-c1c(C)cccc1C)NS(=O)(=O)c1cccc(c1)C(=O)NC[C@@H](C)O2 [Compound 131] | +++ (+++ is >60%) | 1000 to 3000 |
| Cc1cccc(C)c1-c1nc2nc(c1C)OCCNC(=O)c1cccc(c1)S(=O)(=O)N2 [Compound 35, 6-(2,6-Dimethylphenyl)-7-methyl-9-oxa-2λ^6-thia-3,5,12,19-tetraazatricyclo[12.3.1.14,8]nonadeca-1(18),4,6,8(19),14,16-hexaene-2,2,13-trione] | ++ (++ is 30-60%) | 3000 to 30000 |
| Cc1cccc(C)c1-c1nc2nc(c1C)OC[C@@H](CC(C)(C)C)N(C1CC3(CCN(C(=O)OC(C)(C)C)CC3)C1)C(=O)c1cccc(c1)S(=O)(=O)N2 [Compound 82] | +++ (+++ is >60%) | < 1000 |
| COCCN1CCC2(CC1)CC(N1C(=O)c3cccc(c3)S(=O)(=O)Nc3nc(c(OC)c(-c4c(C)cccc4C)n3)OC[C@H]1CC(C)C)C2 [Compound 166, (11R)-6-(2,6-dimethylphenyl)-11-isobutyl-7-methoxy-12-[7-(2-methoxyethyl)-7-azaspiro[3.5]nonan-2-yl]-2,2-dioxo-9-oxa-2λ^6-thia-3,5,12,19-tetrazatricyclo[12.3.1.14,8]nonadeca-1(18),4(19),5,7,14,16-hexaen-13-one] | +++ (+++ is >60%) | < 1000 |
| Cc1cccc(C)c1-c1nc2nc(c1CCC(C)(C)C)OC[C@@H](C)NC(=O)c1cccc(c1)S(=O)(=O)N2 [Compound 125, (11R)-7-(3,3-Dimethylbutyl)-6-(2,6-dimethylphenyl)-11-methyl-2,2-dioxo-9-oxa-2λ^6-thia-3,5,12,19-tetrazatricyclo[12.3.1.14,8]nonadeca-1(18),4(19),5,7,14,16-hexaen-13-one] | ++ (++ is 30-60%) | < 1000 |
| COc1cccc(-c2c3nc(nc2-c2c(C)cccc2C)NS(=O)(=O)c2cccc(c2)C(=O)NC[C@@H](C)O3)c1 [Compound 122, (10R)-6-(2,6-Dimethylphenyl)-7-(3-methoxyphenyl)-10-methyl-2,2-dioxo-9-oxa-2λ^6-thia-3,5,12,19-tetrazatricyclo[12.3.1.14,8]nonadeca-1(18),4(19),5,7,14,16-hexaen-13-one] | +++ (+++ is >60%) | < 1000 |
| Cc1cccc(C)c1-c1nc2nc(c1C)O[C@H](C)CNC(=O)c1cccc(c1)S(=O)(=O)N2 [Compound 202] | ++ (++ is 30-60%) | 1000 to 3000 |
| Cc1cccc(C)c1-c1nc2nc(c1C)OC[C@@H](CC(C)C)NC(=O)c1cccc(c1)S(=O)(=O)N2 [Compound 73] | +++ (+++ is >60%) | < 1000 |
| Cc1cccc(C)c1-c1nc2nc(c1-c1cnn(C)c1)O[C@H](C)CNC(=O)c1cccc(c1)S(=O)(=O)N2 [Compound 128] | + (+ is <30%) |  |
| Cc1cccc(C)c1-c1nc2nc(c1-c1ccccc1)O[C@H](C)CNC(=O)c1cccc(c1)S(=O)(=O)N2 [Compound 119, (10R)-6-(2,6-dimethylphenyl)-10-methyl-2,2-dioxo-7-phenyl-9-oxa-2λ^6-thia-3,5,12,19-tetrazatricyclo[12.3.1.14,8]nonadeca-1(18),4(19),5,7,14,16-hexaen-13-one] | +++ (+++ is >60%) | < 1000 |
| Cc1cccc(C)c1-c1nc2nc(c1-c1ccccc1)OC[C@@H](C)NC(=O)c1cccc(c1)S(=O)(=O)N2 [Compound 142] | ++ (++ is 30-60%) | < 1000 |
| COCCN1CCC2(CC1)CC(N1C(=O)c3cccc(c3)S(=O)(=O)Nc3nc(c(F)c(-c4c(C)cccc4C)n3)OC[C@H]1CC(C)C)C2 [Compound 185] | +++ (+++ is >60%) | < 1000 |
| Cc1cccc(C)c1-c1nc2nc(c1C)OC[C@@H](CC(C)(C)O)N(Cc1ccc(C(C)(C)O)cc1)C(=O)c1cccc(c1)S(=O)(=O)N2 [Compound 114] | +++ (+++ is >60%) | < 1000 |
| Cc1cccc(C)c1-c1nc2nc(c1C)OC(c1ccc(CC3(C(F)(F)F)CC3)cn1)CN(C)C(=O)c1cccc(c1)S(=O)(=O)N2 (centres unmarked) [Compound 205] | +++ (+++ is >60%) | < 1000 |

Further lines, results first:

| Ent. B Max Activity | EC50 [nM] | SMILES |
| --- | --- | --- |
| +++ (+++ is >60%) | < 1000 | COC(=O)NC1CC2(C1)CC(N1C(=O)c3cccc(c3)S(=O)(=O)Nc3nc(c(C)c(-c4c(C)cccc4C)n3)OC[C@H]1CC(C)C)C2 (stereo in doubt) [Compound 69] |
| +++ (+++ is >60%) | < 1000 | Cc1cccc(C)c1-c1nc2nc(c1C)OC[C@@H](CC(C)C)N([C@H]1C[C@@]3(C[C@H](N(C)C)C3)C1)C(=O)c1cccc(c1)S(=O)(=O)N2 (single isomer, unassigned) [Compound 54] |
| +++ (+++ is >60%) | < 1000 | COc1c2nc(nc1-c1c(C)cccc1C)NS(=O)(=O)c1cccc(c1)C(=O)N(C1CC3(CC3)C1)[C@H](CC(C)C)CO2 [Compound 179] |
| +++ (+++ is >60%) | < 1000 | COC(=O)NC1CC2(C1)CC(N1C(=O)c3cccc(c3)S(=O)(=O)Nc3nc(c(C)c(-c4c(C)cccc4C)n3)OC[C@H]1CC(C)(C)C)C2 (single isomer, unassigned) [Compound 61] |
| +++ (+++ is >60%) | < 1000 | Cc1cccc(C)c1-c1nc2nc(c1C)OC[C@@H](CC(C)(C)C)N(C1CC3(CC(CO)C3)C1)C(=O)c1cccc(c1)S(=O)(=O)N2 (stereo in doubt) [Compound 79] |
| +++ (+++ is >60%) | < 1000 | Cc1cccc(C)c1-c1nc2nc(c1C)OC[C@@H](CC(C)(C)C)N(C1CC3(CC(N(C)C)C3)C1)C(=O)c1cccc(c1)S(=O)(=O)N2 (some centres unmarked) [Compound 94] |
| +++ (+++ is >60%) | < 1000 | COC1CC(N2C(=O)c3cccc(c3)S(=O)(=O)Nc3nc(c(C)c(-c4c(C)cccc4C)n3)OC[C@H]2CC(C)C)C1 (stereo in doubt) [Compound 71] |
| +++ (+++ is >60%) | < 1000 | Cc1cccc(C)c1-c1nc2nc(c1C)OC[C@@H](CC(C)(C)C)N(C1CC3(CC(NC(=O)OC(C)C)C3)C1)C(=O)c1cccc(c1)S(=O)(=O)N2 (single isomer, unassigned) [Compound 62] |
| +++ (+++ is >60%) | < 1000 | Cc1cccc(C)c1-c1nc2nc(c1C)OC[C@@H](CC(C)C)N(C1CC3(CC(CO)C3)C1)C(=O)c1cccc(c1)S(=O)(=O)N2 (stereo in doubt) [Compound 67] |
